Results on five substances are retold here after patent US20120016011A1, “RNA Interference Mediated Inhibition of Connective Tissue Growth Factor (CTGF) Gene Expression Using Short Interfering Nucleic Acid (siNA)” (Merck Sharp & Dohme Corp., priority 2009, published 2012).

[invAb] = inverted abasic unit; m = 2'-O-methyl; r = 2'-OH (RNA); f = 2'-fluoro

The subject of series [1] is CTGF mRNA. The series can be described thus: CTGF mRNA knockdown (Taqman RT-PCR) after siNA transfection of human NHLF cells. The series is classed as cell-based. Conditions: for % KD Human: 10 nM siNA, 24 hrs, average of 3 experiments, vs non-targeting control; for % KD CTGF mRNA at 10 nM / IC50: mean ± S.D. In short, it runs like this:
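Normal human lung fibroblasts (5000 cells/well) were transfected 24 h after plating with 10 nM siNA complexed with RNAiMax and harvested 24 h later without a media change. CTGF mRNA was measured by TaqMan RT-qPCR on Cells-to-CT lysates, with β-actin and GAPDH assayed alongside. Knockdown was calculated by comparative Ct (ΔΔCt) against non-targeting control siNA.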

Series [2] relates to GAPDH mRNA. Nature of the series: GAPDH mRNA reduction (normalizer, check for toxicity) in siNA-transfected NHLF cells. The series is classed as cell-based. Conditions: human NHLF cells, mean ± S.D. How it is done:
NHLF (Normal human lung fibroblasts; Lonza cat# CC-2512): Cells were cultured at 37° C. in the presence of 5% CO2 and grown in Fibroblast Basal Medium (Lonza cat# CC-3132) supplemented with 2% FBS and growth factors (provided with the kit) and 100 μg/mL of streptomycin and 100 U/mL penicillin.
Cells were plated in all wells of a tissue-culture treated, 96-well plate at a final count of 5000 cells/well in […], of the appropriate culture media. The cells were cultured for 24 hours after plating at 37° C. in the presence of 5% CO2.
After 24 hours, complexes containing siNA and RNAiMax were created as follows: A solution of RNAiMax diluted 33-fold in OPTI-MEM was prepared. In parallel, solutions of the siNAs for testing were prepared to a final concentration of 120 nM in OPTI-MEM. After incubation of RNAiMax/OPTI-MEM solution at room temperature for 5 min, an equal volume of the siNA solution and the RNAiMax solution were added together for each of the siNAs.
This solution was incubated at room temperature for 20 minutes. After incubation, 20 uL of the solution was added to each of the relevant wells. The final concentration of siNA in each well was 10 nM and the final volume of RNAiMax in each well was 0.3 ul.
The time of incubation with the RNAiMax-siNA complexes was 24 hours and there was no change in media between transfection and harvesting, unless otherwise indicated.
A series of probes and primers were used to detect the various mRNA transcripts of the genes of β-Actin (human cell line only), and of CTGF and GAPDH in mouse and human cell lines. All Taqman probes and primers for the experiments here-in described were supplied as pre-validated sets by Applied Biosystems, Inc. (see Table 3).
The assays were performed on an ABI 7900 instrument, according to the manufacturer's instructions. A TaqMan Gene Expression Master Mix (provided in the Cells-to-CT™, Applied Biosystems, Cat # 4399002) was used. The PCR reactions were carried out at 50° C. for 2 min, 95° C. for 20 min followed by 40 cycles at 95° C. for 15 secs and 60° C. for 1 min.
Additionally, only normalized data, which reflects the general health of the cell and quality of the RNA extraction, was examined. This was done by looking at the level of two different mRNAs in the treated cells, the first being the target mRNA and the second being the normalizer mRNA. This allowed for elimination of siNAs that might be potentially toxic to cells rather than solely knocking down the gene of interest. This was done by comparing the Ct for GAPDH in each well relative to the Ct for the entire plate.

The subject of series [3] is collagen secretion (PICP) by HLF cells. Nature of the series: Pro-collagen Type I C-terminal Pro-peptide (PICP) MSD assay, collagen secretion by HLF cells. The series is classed as cell-based, human. To be noted: TGF-β1 treated, vs universal control siNA, FIG. 13. How it is done: A Pro-collagen Type I C-terminal Pro-peptide (PICP) MSD assay was done on HLF cells transfected with siNAs and treated with TGF-β1. Supernatant from the HLF cells transfected with siNAs and treated with TGF-β1, was removed 72 hours after transfection and 48 hours after treatment. Plates and reagents (except antibodies) were purchased from Meso Scale Discovery. High bind, small spot 96 well MSD plates were spotted with 20 ng/well of the capture antibody (pro-collagen type I C-terminal pro-peptide, human PICP, Caltag Medsystmes) using a TTP LabTech Mosquito. Plates were left to dry for 48 hours before use. The MSD assay was performed as outlined: Plates were blocked with 30 mg/ml Blocker A, sealed and then shook on a plate shaker for 1 hour at RT. Plates were washed 3× with MSD Tris wash buffer. 25 μl of the supernatants were added for 1 hour on a plate shaker, plates were washed as before. The detection antibody (Anti-pro-collagen type I C-terminal pro-peptide, human PICP, Caltag Medsystmes Ltd) was diluted to 800 ng/ml in 10 mg/ml blocker A solution. This antibody had previously been Sulfo-Tagged using Sulfo-Tag NHS Ester (MSD) according to manufacturer's instructions. 25 μl of the diluted sulfo-tagged detection antibody was added, and left as before on a plate shaker for 1 hour. […] 150 μl of 1× Read buffer T was added per well, and the plates read on the MSD sector reader. […]

Turning to “48055-DC: siNA duplex; sense SEQ ID NO: 75 B cAAGuuAuuuAAAucuGuu TTB; antisense SEQ ID NO: 76 AACAGAuuuAAAuAAcuuGUU (sense CAAGUUAUUUAAAUCUGUUTT; antisense AACAGAUUUAAAUAACUUGUU; sense: DNA at AGT, 2'-fluoro at CU, [invAb] at 5' end, 3' end, backbone not given here; antisense: sugars from the 5' end rrrmmmfffmmmfmmfffmmm, backbone not given here)”, in series [1], the “% KD Human” value came out at 88 ± 0%; the “% KD CTGF mRNA at 10 nM” value was determined as 88 ± 0%; the midpoint of inhibition, the IC50, lay at 0.11 ± 0.038 nM. Also, the “% Reduction GAPDH mRNA at 10 nM” value in series [2] is −18 ± 4%.
For the substance “48048-DC: siNA duplex; sense SEQ ID NO: 61 B GAuAGcAucuuAuAcGAGu TTB; antisense SEQ ID NO: 62 ACUcGuAuAAGAuGcuAucUU (sense GAUAGCAUCUUAUACGAGUTT; antisense ACUCGUAUAAGAUGCUAUCUU; sense: DNA at AGT, 2'-fluoro at CU, [invAb] at 5' end, 3' end, backbone not given here; antisense: sugars from the 5' end rrrfmfmfmmmmfmffmffmm, backbone not given here)”, in series [3], the “Collagen secretion (PICP secretion) induced by TGF-β1” value is “returned the levels of PICP secretion to near basal levels”. Also, in series [1], the “% KD Human” value came to 80 ± 3%, the “% KD CTGF mRNA at 10 nM” value was 80 ± 3% and the IC50 (usually the concentration that gives 50% inhibition) was 0.049 ± 0.016 nM. Further, in series [2], the “% Reduction GAPDH mRNA at 10 nM” value was −2 ± 10%.
Turning to “48042-DC: siNA duplex; sense SEQ ID NO: 49 B GAcAuuAAcucAuuAGAcu TTB; antisense SEQ ID NO: 50 AGUcuAAuGAGuuAAuGucUU (sense GACAUUAACUCAUUAGACUTT; antisense AGUCUAAUGAGUUAAUGUCUU; sense: DNA at AGT, 2'-fluoro at CU, [invAb] at 5' end, 3' end, backbone not given here; antisense: sugars from the 5' end rrrffmmfmmmffmmfmffmm, backbone not given here)”, the “Collagen secretion (PICP secretion) induced by TGF-β1” value in series [3] is recorded as “returned the levels of PICP secretion to near basal levels”. In addition, in series [1], the “% KD Human” value was determined as 90 ± 1%, the “% KD CTGF mRNA at 10 nM” value is 90 ± 1% and 0.095 ± 0.022 nM corresponded to half-maximal inhibition (IC50). Also, in series [2], the “% Reduction GAPDH mRNA at 10 nM” value is on record as −43 ± 32%.
Regarding “48046-DC: siNA duplex; sense SEQ ID NO: 57 B cAcAGcAccAGAAuGuAuA TTB; antisense SEQ ID NO: 58 UAUAcAuucuGGuGcuGuGUU (sense CACAGCACCAGAAUGUAUATT; antisense UAUACAUUCUGGUGCUGUGUU; sense: DNA at AGT, 2'-fluoro at CU, [invAb] at 5' end, 3' end, backbone not given here; antisense: sugars from the 5' end rrrmfmffffmmfmffmfmmm, backbone not given here)”, in series [1], the “% KD Human” value was 85 ± 3%, the “% KD CTGF mRNA at 10 nM” value is listed as 85 ± 3% and it took 0.031 ± 0.011 nM to reach half-maximal inhibition (IC50). Also, in series [2], the “% Reduction GAPDH mRNA at 10 nM” value is on record as −53 ± 14%.
Consider “48047-DC: siNA duplex; sense SEQ ID NO: 59 B cGAGuAAuAuGccuGcuAu TTB; antisense SEQ ID NO: 60 AUAGcAGGcAuAuuAcucGUU (sense CGAGUAAUAUGCCUGCUAUTT; antisense AUAGCAGGCAUAUUACUCGUU; sense: DNA at AGT, 2'-fluoro at CU, [invAb] at 5' end, 3' end, backbone not given here; antisense: sugars from the 5' end rrrmfmmmfmfmffmfffmmm, backbone not given here)”, for which, in series [1], the “% KD Human” value was determined as 81 ± 3%, the “% KD CTGF mRNA at 10 nM” value worked out at 81 ± 3% and it took 0.071 ± 0.03 nM to reach half-maximal inhibition (IC50). For the same substance, the “% Reduction GAPDH mRNA at 10 nM” value in series [2] is −5 ± 14%.
